Results on 1 compound are retold here after patent publication US9585864B2, “Anticancer formulation” (National Dong Hwa University, priority 2010, dated 2017).

The subject of test [1] is Nur77 in DBTRG-05NG cells (human GBM cells). Description: Nur77 translocation by immunostaining, fluorescence microscopy. The test is classed as cell-based. The conditions noted are these: 100 μg/mL, 24 hours. As for the experimental part:
Whether translocation of Nur77 occurred in response to z-Bdph was examined. DBTRG-05NG cells (human GBM cells) were treated with Bdph (100 μg/mL) for 24 hours, then immunostained with anti-Nur77 antibody followed by corresponding Rhodamine-conjugated anti-IgG secondary antibody. Simultaneously, cells were stained with DAPI to display the nuclei. The fluorescent images were visualized with a fluorescence microscope.

For the next test, the system named is JNK, AKT, ERK. Description: Western blot of signaling pathway phosphorylation in RG2 cells. The test is classed as cell-based, rat. The following applies: 100 μg/ml, treatment for 1 hour. As for the experimental part: Finally, signaling pathways involved in z-Bdph-induced Nur77 gene expression were investigated. RG2 cells were treated with Bdph (100 μg/ml) for various time periods (0, 15, 30, 60, and 180 mins).
In general terms: Immunoblotting shows a protein as a band on a membrane.

The subject of another test is Nur77. Nature of the test: RT-PCR of orphan receptor Nur77 mRNA expression in RG2 cells. The following applies: IC50 concentration of z-Bdph, 0, 0.5, 1, 3 and 6 h. The test is classed as cell-based, rat. As for the experimental part:
To confirm the results of the oligodeoxynucleotide-based microarray analysis, expression of the orphan receptors NOR-1, Nurr1, and Nur77 was examined in z-Bdph-treated RG2 cells by RT-PCR.
RG2 cells were incubated with IC50 concentration of z-Bdph for various time periods (0, 0.5, 1, 3, and 6 h). After incubation, cells were collected and total RNA isolated. Expression of GADPH was used as an internal control.

Test [2] has as its system Axl receptor tyrosine kinase (RTK). Nature of the test: RT-PCR and Western blot of Axl expression in GBM cells. The test is classed as cell-based. As for the experimental part:
Reverse transcriptase-polymerase chain reaction (RT-PCR) was used to examine the effect of z-Bdph on the gene expression profile in GBM cells to elucidate the possible mechanisms of z-Bdph's inhibition of malignant brain tumor.
Western Blot assays were also carried out to examine the Axl protein level of the GBM cells in the presence of z-Bdph.

Test [3] concerns DBTRG-05MG cells (human GBM). Description: Matrigel invasion chamber and PET membrane migration assay. The test is classed as cell-based. The following applies: 24 hours. On the procedure: The invasion of DBTRG-05MG cells was examined using a BioCoat matrigel invasion chamber system (BD Bioscience, Bedford, Mass.). The BD matrigel Matrix is composed of laminin, collagen IV, nidogen/entrctin, and proteoglycan on polyethylene terephthalate (PET) membranes containing 8 μm pores. In the in vitro migration assay, low pore density PET track-etched membrane on Falcon culture insert (BD Bioscience) was applied. The membrane was placed between the upper and lower wells of a Matrigel chamber or Falcon culture inserts. The cells were first resuspended in PRMI 1640 containing 10% fetal bovine serum and seeded into the upper wells of the chamber (50,000 cells per well). After incubating for 24 hours at 37° C., the cells that invaded or migrated through the membrane were stained with Liu stain (Handsel Technologies, Inc., Taipei, Taiwan) and counted under a microscopy. Each experiment was repeated thrice.

SMILES strings stand for the structures.

`CCC/C=C1\OC(=O)c2ccccc21` [z-Bdph, (Z)-n-butylidenephthalide]: in test [1], the “translocation of Nur77” value is given as “Nur77 was translocated from the nucleus to the cytoplasm”. Besides, in the test on JNK, AKT, ERK, the “phosphorylation of JNK, AKT, ERK” value is on record as “JNK, AKT, ERK were significantly phosphorylated”. Further, the “mRNA expression of Nur77” value in the test with Nur77 is listed as “induced in the cells in a time-dependent manner”. Moreover, the “mRNA expression of Axl receptor tyrosine kinase” value in test [2] (RT-PCR) was “down-regulated”. Also, in test [2] (Western blot), the Axl protein level entry is recorded as “reduced”. Besides, in test [3] (BioCoat matrigel invasion chamber), the “invasion of DBTRG-05MG cells” value was “inhibited migration and invasion of DBTRG-05MG cells in a dose dependent manner”. The “migration of DBTRG-05MG cells” value in test [3] (PET track-etched membrane) was “inhibited migration and invasion of DBTRG-05MG cells in a dose dependent manner”.
